Format in all cases: cell-based, pig
The test system of experiment [1] is pgEpiSCs. As to the kind of experiment: Cell proliferation, survival and passaging of pgEpiSCs. Particulars: for proliferation and passaging of pgEpiSCs: FGF2 removed and ERK/MEK inhibitor PD0325901 added, FIG. 2-1I to 2-1K. The procedure:
pgEpiSCs were cultured in a 12-well plate. Cell samples were inoculated at a density of 2× 10^4 cells per well in triplicate. The number of cells was counted every 12 hours. For each time point, cells were digested and counted using a Luna™ Automated Cell Counter, and the results of three counts were averaged and plotted. The cell doubling time was calculated as follows: doubling time (DT)=24×[lg2/(lgNt−lgN0)], where 24 is the cell culture time (hour); Nt is the number of cells cultured for 48 hours; and No is the number of cells recorded at 24 hours.
(§1) According to the 3i/LAF medium and its culture method described in Example 1, the inventors tested the requirement for each factor in the 3i/LAF medium for long-term in vitro maintenance of pgEpiSCs on the basis of removing the small molecule inhibitors and cytokines from the culture medium one by one without altering the other conditions.

Experiment [2] has as its system pgEpiSCs. Description: qRT-PCR of marker gene mRNA in pgEpiSCs in modified 3i/LAF medium. As for the experimental part: Total RNA from pgEpiSCs was extracted using the RNAprep Pure Cell/Bacteria Kit (TIANGEN, DP430), and then reverse transcribed to cDNA using 5×All-in-One RT Master Mix (Abm, G490). PCR was performed on a LightCycler480 II Real Time System (Roche) using 2×RealStar Green Power Mixture (GenStar, A311-05). The data were analyzed using the comparative CT (2^−ΔΔCT) method. ΔCT was calculated using EF1A as an internal control. All experiments were performed in three biological replicates. Primers used for quantitative real-time PCR are listed in the Resource table.
as §1

The test system of experiment [3] is pgEpiSCs. Description: Clone morphology and alkaline phosphatase (AP) staining of pgEpiSCs in modified 3i/LAF medium. Particulars: for clone morphology and AP staining signal after removal of the factor: factor removed from 3i/LAF medium, other conditions unchanged, FIG. 2-1A. As for the experimental part: The alkaline phosphatase staining of pgEpiSC was based on the Alkaline Phosphatase Assay Kit (Millipore, SCR004). Specific experimental steps followed the instructions of the kit.
Epiblast from pig E8-E10 embryos was obtained, and the epiblast was treated with TrypLE™ Express followed by repeatedly blowing to disperse into small cell masses. The cell masses were then inoculated into 12-well cell culture dishes (density of the feeder layer cells were approximately 2×10^5 cells/well) supplemented with 750 μL of 3i/LAF medium (Note: 10 μM Y27632 was added into the 3i/LAF medium), wherein the feeder layer cells were mouse embryonic fibroblasts treated with mitomycin C (Selleckchem, S8146) and cultured in an incubator at 37° C., 100% humidity, and 5% CO2. After 12 hrs, another 750 μL of 3i/LAF medium was added without changing the medium, and after 24 hrs, the medium was replaced with fresh 3i/LAF medium (containing 2 μM Y27632). After that, the medium was replaced with fresh medium every 12 hrs, and after the clones grew for 2-3 days, the morphology of the clones was observed and the clones were digested for passaging.
as §1
Experimental method: pgEpiSCs were cultured with the adjusted medium, after which AP staining was performed on the cultured pgEpiSCs of P1 (indicating the pgEpiSCs after 1 passage in the adjusted medium) or P3 (indicating the pgEpiSCs after 3 passages in the adjusted medium). The specific steps of AP staining are described in the section of Experimental Methods described previously.

Experiment [4] relates to pgEpiSCs. As to the kind of experiment: Immunostaining of POU5F1 and EOMES in pgEpiSCs. Particulars: factor removed from 3i/LAF medium; FIG. 2-1C. The procedure: Cells were washed with DPBS (Gibco, C14190500BT) and fixed with 4% paraformaldehyde for 30 min at room temperature, then washed with DPBS again, permeabilized in 0.1% Triton X-100 for 20 min and blocked with 3% BSA for 1 hour. Cells were incubated with primary antibody diluted with 3% BSA at 4° C. overnight. Cells were then washed three times for 3 min each with wash buffer (DPBS containing 0.1% Triton X-100 and 0.1% Tween 20). The secondary antibody was diluted, and incubated with wash buffer for 1 hour at room temperature, then washed three times for 5 min each with wash buffer, and then the nuclei were stained with DAPI (Roche Life Science, 10236276001) for 3 min.
as §1

Another experiment concerns phosphorylated STAT3. As to the kind of experiment: Western blot of phosphorylated STAT3 in pgEpiSCs. Particulars: with or without LIF; FIG. 2-1M. The procedure:
Total proteins were extracted from cells by cell lysis buffer (Beyotime Biotechnology, P0013), and nuclear and cytoplasmic proteins were extracted using the nucleus and cytoplasmic protein extraction kit (Beyotime Biotechnology, P0027) supplemented with protease and phosphatase inhibitor cocktail (Beyotime Biotechnology, P1050) to extract nuclear and cytoplasmic proteins. The concentration of extracted proteins was measured using the Bradford Protein Assay Kit (Bio-red, 5000201). An equal amount of proteins (15 μg) was separated by SDS-PAGE gel electrophoresis, which were transferred from the gel to Immobilon-P transfer membrane (Merck Millipore; pore size: 0.45 μm; IPVH00010). The blots were blocked in 5% nonfat powdered milk (Sangon Biotech, A600669-0250) in TBST (20 mM Tris, pH 7.5; 150 mM NaCl; 0.1% Tween 20) at room temperature for 1 hour and then incubated with primary antibodies diluted in 5% nonfat powdered milk in TBST overnight at 4° C. The next day, the blots were rinsed three times with TBST for 5 minutes each time, then incubated together with HRP-coupled secondary antibody diluted in 5% nonfat powdered milk in TBST for 1 hour at room temperature. The blots were developed with SuperSignal West Dura Extended Duration Substrate (Thermo Fisher Scientific, 34075), and the intensity of the bands of the target proteins was analyzed using CLINX chemiluminescence software. […]

Setting [5] is: inhibitor added into the culture medium, FIG. 2-1H.
[6] abbreviates: factor removed from 3i/LAF medium, FIG. 2-1B.
Where [7] appears, read: high concentration of CHIR99021 in the medium, FIG. 2-1E, 2-1F, 2-2C, 2-2D.
[8] abbreviates: only IWR-1-endo replaced with XAV939, FIG. 2-2B.
Where [9] appears, read: only IWR-1-endo replaced with XAV939, FIG. 2-2A.

Entries after “also recorded” stand apart in the source; their conditions may differ.

As for `O=C(NOC[C@H](O)CO)c1ccc(F)c(F)c1Nc1ccc(I)cc1F` [PD0325901], in the experiment with pgEpiSCs [1], the “proliferation and passaging of pgEpiSCs” value is “could not proliferate or be passaged normally”.

For the compound `NC(=O)c1ccc(-c2nc(-c3ccc4c(c3)OCO4)c(-c3ccccn3)[nH]2)cc1` [SB431542], in the experiment on pgEpiSCs [2] (inhibitor added into the culture medium, FIG. 2-1G, 2-1H), the “level of NANOG after addition of the inhibitor” value is on record as “dramatic decrease”. In the experiment on pgEpiSCs [2] (setting [5]), the “BMP4 and BMP downstream transcription factors (ID2, ID3) after addition of the inhibitor” value is reported as “significant increase”; the “pluripotency markers (POU5F1, REX1) after addition of the inhibitor” value is recorded as “significant decrease”. Moreover, in the experiment with pgEpiSCs [3] (inhibitor added into the culture medium, FIG. 2-1G, 2-1L), the “clone morphology after addition of the inhibitor” value is on record as “irregular clone morphology”.

For `COc1ccc(N(C(=O)Oc2c(C)cccc2C)c2ccnc(Nc3ccc(N4CCN(C)CC4)cc3)n2)c(OC)c1` [WH-4-023], in the experiment with pgEpiSCs [4], the “mesodermal and endodermal progenitor marker EOMES immunostaining after removal of the factor” value is recorded as “promoting the expression”; the “pluripotency factor POU5F1 immunostaining after removal of the factor” value is “reduced accumulation or heterogeneity”. Besides, in the experiment with pgEpiSCs [2] (setting [6]), the “expression of gastrulation marker genes BMP2, BMP4, EOMES and T after removal of the factor” value is “up-regulation”.

With `Cc1c[nH]c(-c2cnc(NCCNc3ccc(C#N)cn3)nc2-c2ccc(Cl)cc2Cl)n1` [CHIR99021], the “expression of cell proliferation-related genes (LIN28A, C-MYC, ETV4, ETV5) after removal of the factor” value in the experiment with pgEpiSCs [2] (factor removed from 3i/LAF medium, FIG. 2-1D) was “down-regulated”. In the experiment with pgEpiSCs [2] (setting [7]), the “expression of GATA6 at high concentration” value is “significant up-regulation; also recorded: up-regulated” and the “expression of pluripotency marker POU5F1 at high concentration” value was “down-regulation; also recorded: decreased”.

In the case of `Oc1nc(-c2ccc(C(F)(F)F)cc2)nc2c1CSCC2` [XAV939], in the experiment with pgEpiSCs [2] (setting [8]), the “expression of core pluripotency factor OCT4 (POU5F1) after IWR-1-endo replacement” value is “down-regulated”; the “expression of pluripotency factors REX1, STELLA and ESRRB after IWR-1-endo replacement” value is reported as “down-regulated”. Moreover, the “passaging at which AP positivity was lost (figure legend)” value with pgEpiSCs [3] (IWR-1-endo replacement with XAV939, FIG. 2-2A) is recorded as “around 8 passages of passaging”. Moreover, in the experiment with pgEpiSCs [3] (setting [9]), the “maintenance of pluripotency after IWR-1-endo replacement” value was “unable to maintain pluripotency for a long period of time” and the “passaging at which AP positivity was lost” value is reported as “about 8 generations of passaging”.

Consider “LIF: cytokine of the 3i/LAF medium (PeproTech, 300-05)”, for which the “detection of phosphorylated STAT3” value in the experiment with phosphorylated STAT3 was “could be detected only in the presence of LIF”. Also, the “clone morphology and AP staining signal after removal of the factor” value in the experiment with pgEpiSCs [3] (2-1L) was “not necessary to maintain the morphology”.

Turning to “Activin A: TGF-β superfamily member, cytokine of the 3i/LAF medium (Peprotech, 120-14E)”, the “level of pluripotency marker NANOG after removal of the factor” value in the experiment with pgEpiSCs [2] (factor removed from 3i/LAF medium, FIG. 2-1G, 2-1H) was “decrease”.

With `O=C(Nc1cccc2cccnc12)c1ccc(N2C(=O)[C@@H]3[C@H](C2=O)[C@@H]2C=C[C@H]3C2)cc1` [IWR-1-endo], in the experiment with pgEpiSCs [4], the “mesodermal and endodermal progenitor marker EOMES immunostaining after removal of the factor” value is reported as “promoting the expression”; the “pluripotency factor POU5F1 immunostaining after removal of the factor” value is listed as “reduced accumulation or heterogeneity”. For the same compound, in the experiment with pgEpiSCs [2] (setting [6]), the “expression of core pluripotency factors (NANOG, POU5F1, SOX2, REX1) after removal of the factor” value is on record as “significant down-regulation”; the “expression of gastrulation marker genes BMP2, BMP4, EOMES and T after removal of the factor” value is listed as “up-regulation”. In addition, the “clone morphology and AP staining signal after removal of the factor” value in the experiment on pgEpiSCs [3] (2-1L) is reported as “poorly defined boundaries of the pgEpiSC clone”.

For the compound “FGF2: fibroblast growth factor, cytokine of the 3i/LAF medium (Peprotech, 100-18B)”, the “proliferation and passaging of pgEpiSCs” value in the experiment on pgEpiSCs [1] is recorded as “could not proliferate or be passaged normally”. Also, the “proliferative capacity of pgEpiSCs on decreasing the concentration” value in the experiment with pgEpiSCs [1] (decreasing FGF2 concentration, all other conditions unchanged, FIG. 2-1K) is listed as “significantly reduced”. In the experiment with pgEpiSCs [1] (high concentrations of FGF2, FIG. 2-1K), the “cell proliferation at high concentrations” value was “faster cell proliferation”.

The values are drawn from patent US20240392240A1, “PIG EMBRYO-DERIVED PLURIPOTENT STEM CELLS AND USE THEREOF” (CHINA AGRICULTURAL UNIVERSITY, priority 2021, published 2024).
